According to article PMC10974149, “Acheta domesticus: A Natural Source of Anti-Skin-Aging Ingredients for Cosmetic Applications” (Pharmaceuticals, 2024):
≈ marks a conversion by molar mass, not a printed value.

Target: T1, collagenase from Clostridium histolyticum
T1 construct: gene colG
Experiment: spectrophotometric collagenase inhibition assay
Format: biochemical
Conditions: positive control; substrate not stated in the assay section (FALGPA among reagents)
Description: spectrophotometric collagenase inhibition assay on collagenase from Clostridium histolyticum

CC1(C)CC[C@]2(C(=O)O)CC[C@]3(C)C(=CC[C@@H]4[C@@]5(C)CC[C@H](O)C(C)(C)[C@@H]5CC[C@]43C)[C@@H]2C1 [OA, Oleanolic acid]
IC50 (μg/mL) / Collagenase Inhibition: 3 ± 1 µg/mL (≈ 6.57 µM)
